# ChEMBL document CHEMBL4261498, “Synthesis, characterization, and radioprotective activity of α,β-unsaturated aryl sulfone analogs and their Tempol conjugates” (Medchemcomm, 2017)
# Active and inactive are the calls of the source. The calls are words filed in the database; no cut-off is given here.
# How the values were obtained:
# HUVEC [1] = test: Cytotoxicity against HUVEC after 24 hrs by MTT assay; type: cell-based; details: human
# HUVEC [2] = test: Cytotoxicity against HUVEC at <10 uM after 24 hrs by MTT assay; type: cell-based; details: human
# HUVEC [3] = test: Radioprotective activity against 5 Gy gamma radiation-mediated cell damage in HUVEC assessed as reduction of phopsho-p53 levels at 0.01 to 1 uM by Western blot method; type: functional, cell-based; details: Homo sapiens
# HUVEC [4] = test: (§1) Radioprotective activity against 5 Gy gamma radiation-mediated cell damage in HUVEC assessed as early apoptotic cells at 1 uM preincubated for 2 hrs followed by 5 Gy gamma irradiation and measured after 24 hrs by annexin-V-FITC/propidium iodide staining-based flow cytometric method (reference value: 21.2%); type: functional, Homo sapiens
# HUVEC [5] = test: as §1, with “at 0.01” for “at 1”; type: functional, Homo sapiens
# HUVEC [6] = test: Radioprotective activity against 5 Gy gamma radiation-mediated cell damage in HUVEC assessed as increase in Bcl-2 levels at 0.01 to 1 uM by Western blot method; type: functional, cell-based; details: Homo sapiens
# HUVEC [7] = test: (§2) Radioprotective activity against 5 Gy gamma radiation-mediated cell damage in HUVEC assessed as viable cells at 0.1 uM preincubated for 2 hrs followed by 5 Gy gamma irradiation and measured after 24 hrs by annexin-V-FITC/propidium iodide staining-based flow cytometric method (reference value: 65.8%); type: functional; details: Homo sapiens, light or radiation study, read-out: Activity
# HUVEC [8] = test: as §1, with “at 0.1” for “at 1”; type: functional, Homo sapiens
# HUVEC [9] = test: Radioprotective activity against 5 Gy gamma radiation-mediated cell damage in HUVEC assessed as increase in cell survival at 0.01 to 10 uM preincubated for 2 hrs followed by 5 Gy gamma irradiation and measured after 48 hrs by MTT assay; type: functional, cell-based; details: Homo sapiens
# HUVEC [10] = test: Radioprotective activity against 5 Gy gamma radiation-mediated cell damage in HUVEC assessed as viable cells at 1 uM preincubated for 2 hrs followed by 5 Gy gamma irradiation and measured after 24 hrs by annexin-V-FITC/propidium iodide staining-based flow cytometric method (reference value: 65.8%); type: functional; details: Homo sapiens, light or radiation study, read-out: Activity
# HUVEC [11] = test: Radioprotective activity against 5 Gy gamma radiation-mediated cell damage in HUVEC assessed as reduction of total p53 levels at 0.01 to 1 uM by Western blot method; type: functional, cell-based; details: Homo sapiens
# HUVEC [12] = test: as §2, with “necrotic” for “viable”, “3.5%)” for “65.8%)”; type: functional, Homo sapiens
# HUVEC [13] = test: as §2, with “0.01” for “0.1”; type: functional; details: Homo sapiens, light or radiation study, read-out: Activity
# HUVEC [14] = test: Radioprotective activity against 5 Gy gamma radiation-mediated cell damage in HUVEC assessed as increase in cell survival at 0.01 to 1 uM after 48 hrs by MTT assay; type: functional, cell-based; details: Homo sapiens
# HUVEC [15] = test: as §1, with “late” for “early”, “0.01” for “1”, “9.5%)” for “21.2%)”; type: functional, Homo sapiens
# HUVEC [16] = test: Radioprotective activity against 5 Gy gamma radiation-mediated cell damage in HUVEC assessed as decrease in caspase-3 activation at 0.01 to 1 uM by Western blot method; type: functional, cell-based; details: Homo sapiens
# HUVEC [17] = test: as §1, with “late” for “early”, “9.5%)” for “21.2%)”; type: functional, Homo sapiens
# HUVEC [18] = test: Radioprotective activity against 5 Gy gamma radiation-mediated cell damage in HUVEC assessed as decrease in Bax levels at 0.01 to 1 uM by Western blot method; type: functional, cell-based; details: Homo sapiens
# HUVEC [19] = test: as §2, with “late apoptotic” for “viable”, “9.5%)” for “65.8%)”; type: functional, Homo sapiens
# HUVEC [20] = test: as §2, with “necrotic” for “viable”, “0.01” for “0.1”, “3.5%)” for “65.8%)”; type: functional, Homo sapiens
# HUVEC [21] = test: Radioprotective activity against 5 Gy gamma radiation-mediated cell damage in HUVEC assessed as necrotic cells at 1 uM preincubated for 2 hrs followed by 5 Gy gamma irradiation and measured after 24 hrs by annexin-V-FITC/propidium iodide staining-based flow cytometric method (reference value: 3.5%); type: functional, Homo sapiens
# HUVEC [22] = test: Radioprotective activity against 5 Gy gamma radiation-mediated cell damage in HUVEC assessed as increase in Bcl-2 levels at 0.1 to 10 uM by Western blot method; type: functional, cell-based; details: Homo sapiens
# HUVEC [23] = test: (§3) Radioprotective activity against 5 Gy gamma radiation-mediated cell damage in HUVEC assessed as necrotic cells at 10 uM preincubated for 2 hrs followed by 5 Gy gamma irradiation and measured after 24 hrs by annexin-V-FITC/propidium iodide staining-based flow cytometric method (reference value: 3.5%); type: functional, Homo sapiens
# HUVEC [24] = test: Radioprotective activity against 5 Gy gamma radiation-mediated cell damage in HUVEC assessed as viable cells at 10 uM preincubated for 2 hrs followed by 5 Gy gamma irradiation and measured after 24 hrs by annexin-V-FITC/propidium iodide staining-based flow cytometric method (reference value: 65.8%); type: functional; details: Homo sapiens, light or radiation study, read-out: Activity
# HUVEC [25] = test: Radioprotective activity against 5 Gy gamma radiation-mediated cell damage in HUVEC assessed as increase in cell survival at 0.1 to 10 uM after 48 hrs by MTT assay; type: functional, cell-based; details: Homo sapiens
# HUVEC [26] = test: as §3, with “late apoptotic” for “necrotic”, “9.5%)” for “3.5%)”; type: functional, Homo sapiens
# HUVEC [27] = test: Radioprotective activity against 5 Gy gamma radiation-mediated cell damage in HUVEC assessed as reduction of phopsho-p53 levels at 0.1 to 10 uM by Western blot method; type: functional, cell-based; details: Homo sapiens
# HUVEC [28] = test: Radioprotective activity against 5 Gy gamma radiation-mediated cell damage in HUVEC assessed as decrease in caspase-3 activation at 0.1 to 10 uM by Western blot method; type: functional, cell-based; details: Homo sapiens
# HUVEC [29] = test: Radioprotective activity against 5 Gy gamma radiation-mediated cell damage in HUVEC assessed as reduction of total p53 levels at 0.1 to 10 uM by Western blot method; type: functional, cell-based; details: Homo sapiens
# HUVEC [30] = test: Radioprotective activity against 5 Gy gamma radiation-mediated cell damage in HUVEC assessed as decrease in Bax levels at 0.1 to 10 uM by Western blot method; type: functional, cell-based; details: Homo sapiens
# HUVEC [31] = test: Radioprotective activity against 5 Gy gamma radiation-mediated cell damage in HUVEC assessed as cell survival at 0.1 uM preincubated for 2 hrs followed by 5 Gy gamma irradiation and measured after 48 hrs by MTT assay relative to control; type: functional; details: Homo sapiens, light or radiation study, read-out: Survival
# HUVEC [32] = test: as §1, with “at 10” for “at 1”; type: functional, Homo sapiens
# HUVEC [33] = test: Radioprotective activity against 5 Gy gamma radiation-mediated cell damage in HUVEC assessed as increase in cell survival at 0.1 to 10 uM preincubated for 2 hrs followed by 5 Gy gamma irradiation and measured after 48 hrs by MTT assay; type: functional, cell-based; details: Homo sapiens
compound,measurement,setting,value
O=C(O)c1ccc(/C=C/S(=O)(=O)Cc2ccccc2)cc1,Activity,HUVEC [1],Toxic
O=S(=O)(/C=C/c1ccccc1)Cc1ccc(Cl)cc1,Activity,HUVEC [1],Toxic
CC(C)(C)c1ccc(CS(=O)(=O)/C=C/c2ccc(C(=O)OC3CC(C)(C)N([O])C(C)(C)C3)cc2)cc1,Activity,HUVEC [2],Non-Toxic
CC(c1ccccc1)S(=O)(=O)/C=C/c1ccc(C(=O)OC2CC(C)(C)N([O])C(C)(C)C2)cc1 (configuration not stated),Activity,HUVEC [2],Non-Toxic
CC1(C)CC(OC(=O)c2ccc(/C=C/S(=O)(=O)Cc3ccc(Cl)cc3)cc2)CC(C)(C)N1[O],Activity,HUVEC [3],Active
same,Activity,HUVEC [4],11.7%
same,Activity,HUVEC [5],11.2%
same,Activity,HUVEC [6],Active
same,viability at 0.1 µM,HUVEC [7],90%
same,Activity,HUVEC [8],6.2%
same,Activity,HUVEC [9],Active
same,viability at 1 µM,HUVEC [10],83.3%
same,Activity,HUVEC [11],Active
same,Activity,HUVEC [12],1.3%
same,viability at 0.01 µM,HUVEC [13],84.7%
same,Activity,HUVEC [2],Non-Toxic
same,Activity,HUVEC [14],Active
same,Activity,HUVEC [15],2.2%
same,Activity,HUVEC [16],Active
same,Activity,HUVEC [17],2.9%
same,Activity,HUVEC [18],Active
same,Activity,HUVEC [19],2.5%
same,Activity,HUVEC [20],1.9%
same,Activity,HUVEC [21],2.1%
Cc1ccc(/C=C/S(=O)(=O)Cc2ccc(Cl)cc2)cc1,Activity,HUVEC [1],Toxic
O=C(O)c1ccc(/C=C/S(=O)(=O)Cc2ccc(C(F)(F)F)cc2)cc1,Activity,HUVEC [1],Toxic
CC1(C)CC(OC(=O)c2ccc(/C=C/S(=O)(=O)Cc3ccc(F)cc3)cc2)CC(C)(C)N1[O],Activity,HUVEC [4],6.8%
same,Activity,HUVEC [5],13%
same,viability at 0.1 µM,HUVEC [7],88.8%
same,Activity,HUVEC [8],7.1%
same,Activity,HUVEC [9],Active
same,viability at 1 µM,HUVEC [10],90.8%
same,Activity,HUVEC [12],1.4%
same,viability at 0.01 µM,HUVEC [13],81%
same,Activity,HUVEC [2],Non-Toxic
same,Activity,HUVEC [15],4%
same,Activity,HUVEC [17],1.4%
same,Activity,HUVEC [19],2.7%
same,Activity,HUVEC [20],1.9%
same,Activity,HUVEC [21],1%
COc1ccc(CS(=O)(=O)/C=C/c2ccc(C(=O)O)cc2)cc1,Activity,HUVEC [1],Toxic
O=S(=O)(/C=C/c1ccc(-c2ccccc2)cc1)Cc1ccc(Cl)cc1,Activity,HUVEC [1],Toxic
Cc1ccc(CS(=O)(=O)/C=C/c2ccc(C(=O)O)cc2)cc1,Activity,HUVEC [1],Toxic
O=C(O)c1ccc(/C=C/S(=O)(=O)Cc2ccc(OC(F)(F)F)cc2)cc1,Activity,HUVEC [22],Active
same,Activity,HUVEC [4],8.5%
same,Activity,HUVEC [23],3%
same,viability at 10 µM,HUVEC [24],81.9%
same,viability at 0.1 µM,HUVEC [7],83.3%
same,Activity,HUVEC [25],Active
same,Activity,HUVEC [8],7.8%
same,Activity,HUVEC [26],8.1%
same,Activity,HUVEC [27],Active
same,viability at 1 µM,HUVEC [10],81.9%
same,Activity,HUVEC [12],4.3%
same,Activity,HUVEC [28],Active
same,Activity,HUVEC [29],Active
same,Activity,HUVEC [30],Active
same,Activity,HUVEC [17],6.2%
same,viability at 0.1 µM,HUVEC [31],50%
same,Activity,HUVEC [19],4.7%
same,Activity,HUVEC [32],7%
same,Activity,HUVEC [1],Toxic
same,Activity,HUVEC [21],3.4%
O=C(O)c1ccc(/C=C/S(=O)(=O)Cc2ccc(F)cc2)cc1,Activity,HUVEC [22],Active
same,Activity,HUVEC [4],10.5%
same,Activity,HUVEC [23],1%
same,Activity,HUVEC [33],inactive
same,viability at 10 µM,HUVEC [24],93.4%
same,viability at 0.1 µM,HUVEC [7],90.4%
same,Activity,HUVEC [8],7.3%
same,Activity,HUVEC [26],1%
same,Activity,HUVEC [27],Active
same,viability at 1 µM,HUVEC [10],85.6%
same,Activity,HUVEC [12],1.5%
same,Activity,HUVEC [28],Active
same,Activity,HUVEC [29],Active
same,Activity,HUVEC [30],Active
same,Activity,HUVEC [17],2.3%
same,Activity,HUVEC [19],0.8%
same,Activity,HUVEC [32],4.7%
same,Activity,HUVEC [1],Toxic
same,Activity,HUVEC [21],1.6%
CC(C)(C)c1ccc(CS(=O)(=O)/C=C/c2ccc(C(=O)O)cc2)cc1,Activity,HUVEC [1],Toxic
CC(c1ccccc1)S(=O)(=O)/C=C/c1ccc(C(=O)O)cc1 (configuration not stated),Activity,HUVEC [33],Active
same,Activity,HUVEC [25],Active
same,Activity,HUVEC [1],Toxic
CC1(C)CC(OC(=O)c2ccc(/C=C/S(=O)(=O)Cc3ccc(OC(F)(F)F)cc3)cc2)CC(C)(C)N1[O],Activity,HUVEC [3],Active
same,Activity,HUVEC [4],6.9%
same,Activity,HUVEC [5],15%
same,Activity,HUVEC [6],Active
same,viability at 0.1 µM,HUVEC [7],84.7%
same,Activity,HUVEC [8],12.7%
same,Activity,HUVEC [9],inactive
same,viability at 1 µM,HUVEC [10],90.3%
same,Activity,HUVEC [11],Active
same,Activity,HUVEC [12],0.6%
same,viability at 0.01 µM,HUVEC [13],82.5%
same,Activity,HUVEC [2],Non-Toxic
same,Activity,HUVEC [14],Active
same,Activity,HUVEC [15],1.4%
same,Activity,HUVEC [16],Active
same,Activity,HUVEC [17],1.1%
same,Activity,HUVEC [18],Active
same,Activity,HUVEC [19],2%
same,Activity,HUVEC [20],1.1%
same,Activity,HUVEC [21],1.7%
COc1ccc(/C=C/S(=O)(=O)Cc2ccc(Cl)cc2)cc1,Activity,HUVEC [1],Toxic
